Test results reported in ChEMBL document CHEMBL1949563, “1,3,4-Thiadiazole derivatives as selective inhibitors of iNOS versus nNOS: Synthesis and structure-activity dependence” (Eur J Med Chem, 2012).

Key:
[1] = target: Nitric oxide synthase 1 (Homo sapiens) (UniProt P29475); assay: Inhibition of nNOS assessed as conversion of L-[3H]arginine to L-[3H]-citrulline at 50 uM after 30 mins by scintillation counting
[2] = target: T1, Nitric oxide synthase, inducible (Homo sapiens, UniProt P35228); assay: Inhibition of iNOS assessed as conversion of L-[3H]arginine to L-[3H]-citrulline at 50 uM after 30 mins by scintillation counting
T1 sequence (P35228 whole entry): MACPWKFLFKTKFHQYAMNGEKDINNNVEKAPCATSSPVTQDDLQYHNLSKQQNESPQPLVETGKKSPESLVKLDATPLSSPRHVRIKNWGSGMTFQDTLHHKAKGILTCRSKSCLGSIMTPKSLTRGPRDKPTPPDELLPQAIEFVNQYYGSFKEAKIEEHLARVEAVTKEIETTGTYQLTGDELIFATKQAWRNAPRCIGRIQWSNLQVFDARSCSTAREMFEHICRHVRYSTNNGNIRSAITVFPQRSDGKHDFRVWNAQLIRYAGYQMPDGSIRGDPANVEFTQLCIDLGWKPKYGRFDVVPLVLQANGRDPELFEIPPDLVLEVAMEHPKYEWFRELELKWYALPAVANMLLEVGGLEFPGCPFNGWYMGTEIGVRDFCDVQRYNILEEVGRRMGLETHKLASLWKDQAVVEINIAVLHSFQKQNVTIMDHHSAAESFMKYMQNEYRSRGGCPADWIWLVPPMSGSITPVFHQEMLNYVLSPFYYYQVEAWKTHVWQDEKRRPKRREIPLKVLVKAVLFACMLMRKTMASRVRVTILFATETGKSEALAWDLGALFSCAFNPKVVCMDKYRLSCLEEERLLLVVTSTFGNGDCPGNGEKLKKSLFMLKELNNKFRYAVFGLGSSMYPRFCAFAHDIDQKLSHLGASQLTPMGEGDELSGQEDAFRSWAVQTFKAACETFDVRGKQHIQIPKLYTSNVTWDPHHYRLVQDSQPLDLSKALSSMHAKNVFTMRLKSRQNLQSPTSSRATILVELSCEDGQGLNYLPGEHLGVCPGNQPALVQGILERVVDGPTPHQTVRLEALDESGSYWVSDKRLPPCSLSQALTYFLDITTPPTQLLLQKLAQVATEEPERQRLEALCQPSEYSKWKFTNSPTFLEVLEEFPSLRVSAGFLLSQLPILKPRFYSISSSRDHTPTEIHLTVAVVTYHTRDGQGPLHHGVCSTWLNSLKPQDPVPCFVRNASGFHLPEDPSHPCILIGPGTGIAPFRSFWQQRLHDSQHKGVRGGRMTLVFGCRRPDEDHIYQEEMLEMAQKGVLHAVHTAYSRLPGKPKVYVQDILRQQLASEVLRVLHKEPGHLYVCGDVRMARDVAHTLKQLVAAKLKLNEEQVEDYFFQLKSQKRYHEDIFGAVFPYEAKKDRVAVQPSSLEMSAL

[3] = target: T1, Nitric oxide synthase, inducible; assay: Inhibition of iNOS assessed as conversion of L-[3H]arginine to L-[3H]-citrulline after 30 mins by scintillation counting

Sequence of Nitric oxide synthase 1 (Homo sapiens) (P29475 whole entry): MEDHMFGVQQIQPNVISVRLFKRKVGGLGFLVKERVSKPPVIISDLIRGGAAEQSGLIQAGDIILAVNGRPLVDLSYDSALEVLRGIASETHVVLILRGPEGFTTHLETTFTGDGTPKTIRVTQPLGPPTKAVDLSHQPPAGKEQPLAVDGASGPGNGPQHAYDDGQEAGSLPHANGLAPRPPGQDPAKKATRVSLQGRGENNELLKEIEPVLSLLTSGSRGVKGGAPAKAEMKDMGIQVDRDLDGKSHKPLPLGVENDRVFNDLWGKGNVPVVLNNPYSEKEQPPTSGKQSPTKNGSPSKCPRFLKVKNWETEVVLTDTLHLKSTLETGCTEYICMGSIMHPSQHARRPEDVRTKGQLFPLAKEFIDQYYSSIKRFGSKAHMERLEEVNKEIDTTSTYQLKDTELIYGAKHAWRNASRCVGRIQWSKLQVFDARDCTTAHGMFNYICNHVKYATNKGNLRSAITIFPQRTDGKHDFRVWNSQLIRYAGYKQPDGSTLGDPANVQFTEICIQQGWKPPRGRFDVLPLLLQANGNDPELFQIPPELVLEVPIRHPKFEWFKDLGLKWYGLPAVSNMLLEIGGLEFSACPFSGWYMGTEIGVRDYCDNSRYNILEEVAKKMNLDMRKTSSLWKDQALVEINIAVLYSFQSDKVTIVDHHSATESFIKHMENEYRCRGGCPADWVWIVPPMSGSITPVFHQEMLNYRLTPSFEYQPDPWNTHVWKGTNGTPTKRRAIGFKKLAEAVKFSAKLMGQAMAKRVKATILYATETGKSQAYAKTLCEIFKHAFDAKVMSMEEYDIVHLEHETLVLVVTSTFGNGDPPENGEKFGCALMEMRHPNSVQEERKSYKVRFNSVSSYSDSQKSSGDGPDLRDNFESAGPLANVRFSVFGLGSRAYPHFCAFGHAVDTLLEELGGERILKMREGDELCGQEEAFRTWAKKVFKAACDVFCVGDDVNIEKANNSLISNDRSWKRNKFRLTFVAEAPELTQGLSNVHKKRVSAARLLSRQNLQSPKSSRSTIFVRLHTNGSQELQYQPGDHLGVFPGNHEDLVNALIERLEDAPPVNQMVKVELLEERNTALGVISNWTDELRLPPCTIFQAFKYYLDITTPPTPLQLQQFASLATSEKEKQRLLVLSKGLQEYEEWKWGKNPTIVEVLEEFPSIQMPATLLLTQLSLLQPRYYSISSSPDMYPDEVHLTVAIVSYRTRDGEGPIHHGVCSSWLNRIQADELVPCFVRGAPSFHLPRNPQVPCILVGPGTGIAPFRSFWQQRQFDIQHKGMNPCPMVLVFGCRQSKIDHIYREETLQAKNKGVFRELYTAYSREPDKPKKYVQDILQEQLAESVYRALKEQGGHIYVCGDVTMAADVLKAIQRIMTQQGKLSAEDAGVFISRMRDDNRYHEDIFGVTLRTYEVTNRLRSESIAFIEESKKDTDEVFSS

| SMILES | inhibition [1] | inhibition [2] | IC50 [3] |
| --- | --- | --- | --- |
| CCCC(=O)N1N=C(c2cc(OC)ccc2N)SC1(C)C | 9.58% | 91.1% | 29.6 µM |
| CCC(=O)N1N=C(c2cc(OC)ccc2N)SC1(C)C | 8.85% | 73% | – |
| COc1ccc(N)c(C2=NN(C(=O)C3CCCC3)C(C)(C)S2)c1 | 17.4% | 65% | – |
| CC1(C)SC(c2cc(Cl)ccc2N)=NN1C(=O)C1CCCCC1 | 23.1% | 7.61% | – |
| CC1(C)SC(c2cc(Cl)ccc2N)=NN1C(=O)C1CCCC1 | 8.37% | 21.3% | – |
| COc1ccc(N)c(C2=NN(C(=O)C3CCC3)C(C)(C)S2)c1 | 13.7% | 57.8% | – |
| CCCC(=O)N1N=C(c2ccccc2N)SC1(C)C | 17.5% | 35.2% | – |
| CCCCC(=O)N1N=C(c2ccccc2N)SC1(C)C | 38% | 39% | – |
| CC(=O)N1N=C(c2ccccc2N)SC1(C)C | 13.3% | 22.9% | – |
| CC1(C)SC(c2ccccc2N)=NN1C(=O)C1CCC1 | 2.98% | 46.9% | – |
| CCCCC(=O)N1N=C(c2cc(OC)ccc2N)SC1(C)C | 14.6% | 101% | – |
| CC1(C)SC(c2ccccc2N)=NN1C(=O)C1CC1 | 7.32% | 93% | 34 µM |
| CC1(C)SC(c2ccccc2N)=NN1C(=O)C1CCCC1 | 9.34% | 42.1% | – |
| CCC(=O)N1N=C(c2ccccc2N)SC1(C)C | 24.2% | 19.2% | – |
| COc1ccc(N)c(C2=NN(C(C)=O)C(C)(C)S2)c1 | 43.3% | 77.1% | – |
| CC1(C)SC(c2ccccc2N)=NN1C(=O)C1CCCCC1 | 6.8% | 28% | – |
| COc1ccc(N)c(C2=NN(C(=O)C3CCCCC3)C(C)(C)S2)c1 | 11.3% | 100% | 21.9 µM |
| COc1ccc(N)c(C2=NN(C(=O)C3CC3)C(C)(C)S2)c1 | 9.95% | 90% | 41 µM |

Now from value to molecule:

| inhibition [1] | inhibition [2] | IC50 [3] | SMILES |
| --- | --- | --- | --- |
| 18.3% | 1.07% | – | CCC(=O)N1N=C(c2cc(Cl)ccc2N)SC1(C)C |
| 17.2% | 0% | – | COc1ccc(N)c(C2=NN(C(=O)c3ccccc3)C(C)(C)S2)c1 |
| 22.5% | 72.8% | – | CC(=O)N1N=C(c2cc(Cl)ccc2N)SC1(C)C |
| 38% | 12.6% | – | CCCCC(=O)N1N=C(c2cc(Cl)ccc2N)SC1(C)C |
| 42.4% | 39.8% | – | CC1(C)SC(c2ccccc2N)=NN1C(=O)c1ccccc1 |
| 4.56% | -4.65% | – | CC1(C)SC(c2cc(Cl)ccc2N)=NN1C(=O)C1CCC1 |
| 27.7% | 66.2% | – | CCCC(=O)N1N=C(c2cc(Cl)ccc2N)SC1(C)C |
| 23.6% | 20.8% | – | CC1(C)SC(c2cc(Cl)ccc2N)=NN1C(=O)c1ccccc1 |
| 21.9% | 23.2% | – | CC1(C)SC(c2cc(Cl)ccc2N)=NN1C(=O)C1CC1 |
